Where two headings read alike, the source gives them in different places.
Columns and labels:
[1] = test system: HIV-1 (IIIB) in MT-4 cells; test: MT-4 HIV assay; type: cell-based; conditions: HIV-1 (IIIB), MT-4 cells, 5 days, Cell Titer Glo, read-out: EC50
Outline: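 Antiviral activity was read by Cell Titer Glo after a 5-day, 37 °C culture of MT-4 cells pre-infected with a 1:250 dilution of HIV-1 (IIIB). Compounds were tested as threefold dilution series in complete RPMI. Controls were no drug, mock infection and 5 uM AZT.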

[2] = Outline: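 LC/MS/MS read-out of parent compound remaining; in vitro t1/2 converted to Clint. Incubation: 1 uM compound, 0.5 mg/mL dog/rat/human liver microsomes, NADPH-regenerating system, duplicate sets, time-points 2–65 minutes.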
in vivo = conditions: rat, in vivo; for Vd / RAT PO F: male, SD; for Vd / RAT IV CL / RAT IV T1/2: iv; for RAT PO F: 2.5 mg/kg
Protocol: Each dosing group consisted of 3 male naïve SD Rats. At dosing, the animals weighed between 0.27 to 0.32 kg. The animals were fasted overnight prior to dose administration. The test article was administered by intravenous infusion over 30 min. The rate of infusion was adjusted according to the body weight of each animal to deliver a dose of 0.5 or 1.0 mg/kg. For the oral dosing group, the test article was administered to animals by oral gavage administration. Serial venous blood samples (approximately 0.30 mL each) were taken at predose and 0.25, 0.48, 0.58, 0.75, 1.5, 3, 6, 8, 12 and 24 hours post dose for the IV dosing group animals. Blood samples were taken at predose, 0.25, 0.50, 1, 2, 4, 6, 8, 12 and 24 hours post dose for the oral group animals. The blood samples were collected into Vacutainer™ tubes containing EDTA-K2 as the anti-coagulant and were immediately placed on wet ice pending centrifugation for plasma. An LC/MS/MS method was used to measure the concentration of test compound in plasma. Non-compartmental pharmacokinetic analysis was performed on the plasma concentration-time data.

[3] = Human immunodeficiency virus 1, MT4, 120 h
[4] = human liver microsomes 0.5 mg/mL, 1 uM compound, NADPH

With `COC(=O)N[C@H](C(=O)N[C@@H](Cc1ccc(C#Cc2ccc(N3CC4CCC(C3)N4C3COC3)nc2)cc1)[C@@H](O)CN(Cc1ccc(-c2ccccn2)cc1)NC(=O)[C@@H](NC(=O)OC)C(C)(C)C(F)(F)F)C(C)(C)C(F)(F)F` [Example 56, Methyl ((5S,8S,9S,14S)-16,16,16-trifluoro-9-hydroxy-15,15-dimethyl-8-(4-((6-(8-(oxetan-3-yl)-3,8-diazabicyclo[3.2.1]octan-3-yl)pyridin-3-yl)ethynyl)benzyl)-3,6,13-trioxo-11-(4-(pyridin-2-yl)benzyl)-5-(1,1,1-trifluoro-2-methylpropan-2-yl)-2-oxa-4,7,11,12-tetraazahexadecan-14-yl)carbamate] the EC50 [1, 3] was 3.59 nM, the “Dog. Pred. Cl.” value ([2]; microsomes) was 1.47 L/H/kg and the “Human Pred Cl.” value ([2]; human, microsomes) was 0.17 L/H/kg. For the same compound, the “Rat. Pred. Cl.” value ([2]; rat, microsomes) was 0.19 L/H/kg, the Vd (in vivo) was 7.44 L/kg and the “RAT PO F” value (in vivo) was 34.1%. The “RAT IV CL” value (in vivo) was 14.2 mL/min/kg and the “RAT IV T1/2” value (in vivo) was 8.77 h.
In the case of `COC(=O)N[C@H](C(=O)N[C@@H](Cc1ccc(C#Cc2ccc(N3CC4CCC(C3)N4C3COC3)nc2)cc1)[C@@H](O)CN(Cc1c(F)cc(-c2cc3n(n2)CCOC3)cc1F)NC(=O)[C@@H](NC(=O)OC)C(C)(C)C(F)(F)F)C(C)(C)C(F)(F)F` [Example 57, Methyl ((5S,8S,9S,14S)-11-(4-(6,7-dihydro-4H-pyrazolo[5,1-c][1,4]oxazin-2-yl)-2,6-difluorobenzyl)-16,16,16-trifluoro-9-hydroxy-15,15-dimethyl-8-(4-((6-(8-(oxetan-3-yl)-3,8-diazabicyclo[3.2.1]octan-3-yl)pyridin-3-yl)ethynyl)benzyl)-3,6,13-trioxo-5-(1,1,1-trifluoro-2-methylpropan-2-yl)-2-oxa-4,7,11,12-tetraazahexadecan-14-yl)carbamate], the EC50 [1, 3] is reported as 2.91 nM, the “Human Pred Cl.” value ([2]; human, microsomes) is reported as <0.11 L/H/kg and the “Rat. Pred. Cl.” value ([2]; rat, microsomes) is reported as <0.18 L/H/kg. The Vd (in vivo) was 2.45 L/kg, the “RAT PO F” value (in vivo) was 23.2% and the “RAT IV CL” value (in vivo) was 6 mL/min/kg. The “RAT IV T1/2” value (in vivo) was 6.28 h.
With `COC(=O)N[C@H](C(=O)N[C@@H](Cc1ccc(C#Cc2cnc(N3CC4CCC(C3)N4C3COC3)nc2)cc1)[C@@H](O)CN(Cc1c(F)cc(-c2cnn(C(F)F)c2)cc1F)NC(=O)[C@@H](NC(=O)OC)C(C)(C)C(F)(F)F)C(C)(C)C(F)(F)F` [Example 61, Methyl ((5S,8S,9S,14S)-11-(4-(1-(difluoromethyl)-1H-pyrazol-4-yl)-2,6-difluorobenzyl)-16,16,16-trifluoro-9-hydroxy-15,15-dimethyl-8-(4-((2-(8-(oxetan-3-yl)-3,8-diazabicyclo[3.2.1]octan-3-yl)pyrimidin-5-yl)ethynyl)benzyl)-3,6,13-trioxo-5-(1,1,1-trifluoro-2-methylpropan-2-yl)-2-oxa-4,7,11,12-tetraazahexadecan-14-yl)carbamate] the EC50 [1, 3] was 4.11 nM, the “Human Pred Cl.” value ([2]; human, microsomes) was <0.11 L/H/kg and the “Rat. Pred. Cl.” value ([2]; rat, microsomes) was <0.18 L/H/kg. The Vd (in vivo) was 6.5 L/kg, the “RAT PO F” value (in vivo) was 18.5% and the “RAT IV CL” value (in vivo) was 7.17 mL/min/kg. For the same compound, the “RAT IV T1/2” value (in vivo) was 12.9 h.
With `COC(=O)N[C@H](C(=O)N[C@@H](Cc1ccc(C#Cc2ccc(N3CC4CCC(C3)N4C3COC3)nc2)cc1)[C@@H](O)CN(Cc1c(F)cc(-c2cnn(C(F)F)c2)cc1F)NC(=O)[C@@H](NC(=O)OC)C(C)(C)C(F)(F)F)C(C)(C)C(F)(F)F` [Example 71, Methyl ((5S,8S,9S,14S)-11-(4-(1-(difluoromethyl)-1H-pyrazol-4-yl)-2,6-difluorobenzyl)-16,16,16-trifluoro-9-hydroxy-15,15-dimethyl-8-(4-((6-(8-(oxetan-3-yl)-3,8-diazabicyclo[3.2.1]octan-3-yl)pyridin-3-yl)ethynyl)benzyl)-3,6,13-trioxo-5-(1,1,1-trifluoro-2-methylpropan-2-yl)-2-oxa-4,7,11,12-tetraazahexadecan-14-yl)carbamate] the EC50 [1, 3] was 3.37 nM, the “Dog. Pred. Cl.” value ([2]; microsomes) was 0.47 L/H/kg and the “Human Pred Cl.” value ([2]; human, microsomes) was <0.11 L/H/kg. For the same compound, the “Rat. Pred. Cl.” value ([2]; rat, microsomes) was <0.18 L/H/kg, the Vd (in vivo) was 7.26 L/kg and the “RAT PO F” value (in vivo) was 24.6%. The “RAT IV CL” value (in vivo) was 15 mL/min/kg and the “RAT IV T1/2” value (in vivo) was 9.27 h.
With `COC(=O)N[C@H](C(=O)N[C@@H](Cc1ccc(C#Cc2ccc(N3CC4CCC(C3)N4C3COC3)nc2)cc1)[C@@H](O)CN(Cc1c(F)cc(-c2cnn(C(F)F)c2)cc1F)NC(=O)[C@@H](NC(=O)OC)C(C)(C)CF)C(C)(C)CF` [Example 233, methyl ((5S,8S,9S,14S)-11-(4-(1-(difluoromethyl)-1H-pyrazol-4-yl)-2,6-difluorobenzyl)-16-fluoro-5-(1-fluoro-2-methylpropan-2-yl)-9-hydroxy-15,15-dimethyl-8-(4-((6-(8-(oxetan-3-yl)-3,8-diazabicyclo[3.2.1]octan-3-yl)pyridin-3-yl)ethynyl)benzyl)-3,6,13-trioxo-2-oxa-4,7,11,12-tetraazahexadecan-14-yl)carbamate] the EC50 [1, 3] was 2.71 nM, the “Human Pred Cl.” value ([2]; human, microsomes) was <0.11 L/H/kg and the “Rat. Pred. Cl.” value ([2]; rat, microsomes) was <0.18 L/H/kg.
With “Methyl ((5S,8S,9S,14S)-8-(4-((6-(3,8-diaza bicyclo[3.2.1]octan-3-yl)pyridin-3-yl)ethynyl)benzyl)-1-(4-(1-(difluoromethyl)-1H-pyrazol-3-yl)-2,6-difluorobenzyl)-16,16,16-trifluoro-9-hydroxy-15,15-dimethyl-3,6,13-trioxo-5-(1,1,1-trifluoro-2-methylpropan-2-yl)-2-oxa-4,7,11,12-tetraazahexadecan-14-yl)carbamate 2,2,2-trifluoroacetate [Example 161]” the EC50 [1] was 14 nM and the “Human Pred Cl.” value [2, 4] was <0.11 L/H/kg.
With “Methyl ((5S,8S,9S,14S)-11-(2,6-difluoro-4-(1-methyl-1H-pyrazol-3-yl)benzyl)-16,16,16-trifluoro-9-hydroxy-15,15-dimethyl-8-(4-((6-(8-(oxetan-3-yl)-3,8-diazabicyclo[3.2.1]octan-3-yl)pyridin-3-yl)ethynyl)benzyl-3,6,13-trioxo-5-(1,1,1-trifluoro-2-methylpropan-2-yl)-2-oxa-4,7,11,12-tetraazahexadecan-14-yl)carbamate [Example 128]” the EC50 [1] was 3.16 nM, the “Human Pred Cl.” value [2, 4] was 0.15 L/H/kg and the “Rat. Pred. Cl.” value ([2]; rat liver microsomes 0.5 mg/mL, 1 uM compound, NADPH) was 0.37 L/H/kg.
With “Methyl ((5S,8S,9S,14S)-11-(4-(1-(difluoromethyl)-1H-pyrazol-4-yl)-2,6-difluorobenzyl)-16,16,16-trifluoro-9-hydroxy-15,15-dimethyl-8-(4-((6-(4-(oxetan-3-yl)piperazin-1-yl)pyridin-3-yl)ethynyl)benzyl)-3,6,13-trioxo-5-(1,1-trifluoro-2-methylpropan-2-yl)-2-oxa-4,7,11,12-tetraazahexadecan-14-yl)carbamate [Example 116]” the EC50 [1] was 2.79 nM, the “Human Pred Cl.” value ([2]; human, microsomes) was 0.19 L/H/kg and the “Rat. Pred. Cl.” value ([2]; rat, microsomes) was 0.39 L/H/kg.
